Test results taken from US20230416227A1, “PLASMA KALLIKREIN INHIBITORS” (Merck Sharp & Dohme LLC, priority 2020, published 2023).

Legend:
human factor XIa = human factor XIa (Homo sapiens, UniProt P03951); assay: Factor XIa Assay; assay type: biochemical; details: human factor XIa 0.04 nM, substrate GPR-AFC, 30 min pre-incubation at 25° C., pH 7.4; read-out: FXIa IC50
Human plasma kallikrein = target: T1, Human plasma kallikrein (Homo sapiens, UniProt P03952); assay: Plasma Kallikrein Assay; assay type: biochemical; details: purified Human plasma kallikrein 0.5 nM, substrate Acetyl-K-P-R-AFC, pH 7.4
T1 construct: yields a heavy chain (371 amino acids) and a light chain (248 amino acids); purchased Enzyme Research Laboratories
T1 sequence (P03952 391-638 limits assumed): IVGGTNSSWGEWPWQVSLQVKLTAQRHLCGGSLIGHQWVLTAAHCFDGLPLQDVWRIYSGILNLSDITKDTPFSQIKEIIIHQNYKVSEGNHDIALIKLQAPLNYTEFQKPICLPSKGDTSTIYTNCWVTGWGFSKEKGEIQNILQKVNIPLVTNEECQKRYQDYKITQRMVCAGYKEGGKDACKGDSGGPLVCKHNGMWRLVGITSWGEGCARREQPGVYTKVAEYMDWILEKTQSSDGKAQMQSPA
T1 sequence (P03952 20-390 partner limits assumed): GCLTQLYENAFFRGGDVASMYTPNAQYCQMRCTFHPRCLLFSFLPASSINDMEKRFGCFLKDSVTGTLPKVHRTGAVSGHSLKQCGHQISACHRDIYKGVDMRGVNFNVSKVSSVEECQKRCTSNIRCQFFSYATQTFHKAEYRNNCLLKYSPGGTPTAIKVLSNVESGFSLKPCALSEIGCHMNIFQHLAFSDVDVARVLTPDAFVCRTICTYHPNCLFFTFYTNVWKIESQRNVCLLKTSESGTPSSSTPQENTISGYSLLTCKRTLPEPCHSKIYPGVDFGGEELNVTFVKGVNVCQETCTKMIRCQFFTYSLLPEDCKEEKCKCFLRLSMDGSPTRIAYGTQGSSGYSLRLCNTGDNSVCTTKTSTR

Sequence of human factor XIa (P03951 388-625 limits assumed): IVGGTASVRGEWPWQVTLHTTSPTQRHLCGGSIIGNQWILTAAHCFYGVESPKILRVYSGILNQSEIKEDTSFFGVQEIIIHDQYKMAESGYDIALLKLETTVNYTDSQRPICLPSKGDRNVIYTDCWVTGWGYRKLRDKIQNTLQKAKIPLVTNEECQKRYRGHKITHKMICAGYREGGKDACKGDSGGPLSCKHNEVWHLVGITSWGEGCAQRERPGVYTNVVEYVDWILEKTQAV
Sequence of human factor XIa (P03951 19-387 partner limits assumed): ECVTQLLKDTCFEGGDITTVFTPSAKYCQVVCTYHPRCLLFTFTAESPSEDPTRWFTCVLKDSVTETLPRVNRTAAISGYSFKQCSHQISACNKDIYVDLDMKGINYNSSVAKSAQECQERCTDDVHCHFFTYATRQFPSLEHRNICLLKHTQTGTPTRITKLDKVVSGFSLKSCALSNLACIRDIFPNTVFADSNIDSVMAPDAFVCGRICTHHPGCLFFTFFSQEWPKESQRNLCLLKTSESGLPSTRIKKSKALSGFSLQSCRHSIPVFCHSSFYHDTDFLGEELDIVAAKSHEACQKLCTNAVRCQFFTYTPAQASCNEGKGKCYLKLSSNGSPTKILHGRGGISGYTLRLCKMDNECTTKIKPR

IC50 (human factor XIa) [nM]	IC50 (Human plasma kallikrein) [nM]	SMILES
1690	22.9	O=C(Nc1cnn([C@@H](CO)c2cnc(N3CCC3)nc2)c1)c1cncc(-c2c(C(F)F)ccc(Cl)c2F)n1 (single isomer, unassigned) [Example 6]
1170	19.5	[2H]C(C)(c1cnc(N2CCC2)nc1)n1cc(NC(=O)c2cncc(-c3c(C(F)F)ccc(Cl)c3F)n2)cn1 (single isomer, unassigned) [Example 43, (R or S)-N-(1-(1-(2-(azetidin-1-yl)pyrimidin-5-yl)ethyl-1-d)-1H-pyrazol-4-yl)-6-(3-chloro-6-(difluoromethyl)-2-fluorophenyl)pyrazine-2-carboxamide]
8070	64.3	Cc1nc(N2CCC2)ncc1[C@H](C)n1cc(NC(=O)c2cncc(-c3c(C(F)F)ccc(Cl)c3F)n2)cn1 (single isomer, unassigned) [Example 69]
4210	2.1	Cc1nc(N2CCC2)cnc1C(C)n1cc(NC(=O)c2cncc(-c3c(C(F)F)ccc(Cl)c3F)n2)cn1 (single isomer, unassigned) [Example 41, (S or R)-N-(1-(1-(5-(azetidin-1-yl)-3-methylpyrazin-2-yl)ethyl)-1H-pyrazol-4-yl)-6-(3-chloro-6-(difluoromethyl)-2-fluorophenyl)pyrazine-2-carboxamide]
1110	4.7	[2H]C(C)(c1cnc(N2CCC2)nc1)n1cc(NC(=O)c2cncc(-c3c(C(F)F)ccc(Cl)c3F)n2)cn1 (single isomer, unassigned) [Example 42, (S or R)-N-(1-(1-(2-(azetidin-1-yl)pyrimidin-5-yl)ethyl-1-d)-1H-pyrazol-4-yl)-6-(3-chloro-6-(difluoromethyl)-2-fluorophenyl)pyrazine-2-carboxamide]
1840	7.2	O=C(Nc1cnn(Cc2cnc(N3CCC3)cn2)c1)c1cncc(-c2c(C(F)F)ccc(Cl)c2F)n1 [Example 13, N-(1-((5-(Azetidin-1-yl)pyrazin-2-yl)methyl)-1H-pyrazol-4-yl)-6-(3-chloro-6-(difluoromethyl)-2-fluorophenyl)pyrazine-2-carboxamide]
2700	25.6	CC(c1ccc(N2CCC2)nc1)n1cc(NC(=O)c2cncc(-c3c(C(F)F)ccc(Cl)c3F)n2)cn1 (single isomer, unassigned) [Example 37, (S or R)-N-(1-(1-(6-(azetidin-1-yl)pyridin-3-yl)ethyl)-1H-pyrazol-4-yl)-6-(3-chloro-6-(difluoromethyl)-2-fluorophenyl)pyrazine-2-carboxamide]

Continued, compound first:

SMILES	IC50 (human factor XIa) [nM]	IC50 (Human plasma kallikrein) [nM]
CC(c1cnc(N2CCC2)nc1)n1cc(NC(=O)c2cncc(-c3cc(Cl)ccc3-n3cnnn3)n2)cn1 (single isomer, unassigned) [Example 58, (S or R)-N-(1-(1-(2-(Azetidin-1-yl)pyrimidin-5-yl)ethyl)-1H-pyrazol-4-yl)-6-(5-chloro-2-(1H-tetrazol-1-yl)phenyl)pyrazine-2-carboxamide]	413	8.1
CC(c1cnc(N2CCC2)nc1)n1cc(NC(=O)c2cncc(-c3c(OC(F)F)ccc(Cl)c3F)n2)cn1 (single isomer, unassigned) [Example 57, (S or R)-N-(1-(1-(2-(Azetidin-1-yl)pyrimidin-5-yl)ethyl)-1H-pyrazol-4-yl)-6-(3-chloro-6-(difluoromethoxy)-2-fluorophenyl)pyrazine-2-carboxamide]	1170	6.8
NC(=O)c1cc(N2CCC2)ncc1Cn1cc(NC(=O)c2cncc(-c3c(C(F)F)ccc(Cl)c3F)n2)cn1 [Example 206, N-(1-((6-(Azetidin-1-yl)-4-carbamoylpyridin-3-yl)methyl)-1H-pyrazol-4-yl)-6-(3-chloro-6-(difluoromethyl)-2-fluorophenvl)pyrazine-2-carboxamide]	820	24.4
O=C(Nc1cnn(Cc2cnc(N3CCCC3CCO)nc2)c1)c1cncc(-c2c(C(F)F)ccc(Cl)c2F)n1 (single isomer, unassigned) [Example 102, (S or R)-6-(3-Chloro-6-(difluoromethyl)-2-fluorophenyl)-N-(1-((2-(2-(2-hydroxyethyl)pyrrolidin-1-yl)pyrimidin-5-yl)methyl)-1H-pyrazol-4-yl)pyrazine-2-carboxamide]	2250	31.2
C[C@H](O)[C@H]1[C@H]2C[C@H]2CN1c1ncc(Cn2cc(NC(=O)c3cncc(-c4c(C(F)F)ccc(Cl)c4F)n3)cn2)cn1 [Example 84, 6-(3-Chloro-6-(difluoromethyl)-2-fluorophenyl)-N-(1-((2-((1S,2R,5R)-2-((S)-1-hydroxyethyl)-3-azabicyclo[3.1.0]hexan-3-yl)pyrimidin-5-yl)methyl)-1H-pyrazol-4-yl)pyrazine-2-carboxamide]	7240	11.3
O=C(Nc1cnn(Cc2ccc(N3CCC(O)C3)nc2)c1)c1cncc(-c2c(C(F)F)ccc(Cl)c2F)n1 (stereo not shown) [Example 123, 6-(3-Chloro-6-(difluoromethyl)-2-fluorophenyl)-N-(1-((6-(3-hydroxypyrrolidin-1-yl)pyridin-3-yl)methyl)-1H-pyrazol-4-yl)pyrazine-2-carboxamide]	3330	27.3
CC(c1cnc(N2CC[C@H]2[C@@H](C)N2C[C@@H](O)[C@@H](O)C2)nc1)n1cc(NC(=O)c2cncc(-c3c(C(F)F)ccc(Cl)c3F)n2)cn1 (stereo partly drawn) [Example 187, 6-(3-Chloro-6-(difluoromethyl)-2-fluorophenyl)-N-(1-(1-(2-((S)-2-((R)-1-((3R,4S)-3,4-dihydroxypyrrolidin-1-yl)ethyl)azetidin-1-yl)pyrimidin-5-yl)ethyl)-1H-pyrazol-4-yl)pyrazine-2-carboxamide]	3330	1
CC(c1cnc(N2CC(F)(F)C2)nc1)n1cc(NC(=O)c2cncc(-c3c(C(F)F)ccc(Cl)c3F)n2)cn1 (stereo not shown) [Example 82, 6-(3-Chloro-6-(difluoromethyl)-2-fluorophenyl)-N-(1-(1-(2-(3,3-difluoroazetidin-1-yl)pyrimidin-5-yl)ethyl)-1H-pyrazol-4-yl)pyrazine-2-carboxamide]	6010	9.3
O=C(Nc1cnn(Cc2cnc(N3C[C@H]4C[C@H]4[C@H]3CN3CC(O)(C(F)(F)F)C3)nc2)c1)c1cncc(-c2c(C(F)F)ccc(Cl)c2F)n1 [Example 155, 6-(3-Chloro-6-(difluoromethyl)-2-fluorophenyl)-N-(1-((2-((1R,2S,5S)-2-((3-hydroxy-3-(trifluoromethyl)azetidin-1-yl)methyl)-3-azabicyclo[3.1.0]hexan-3-yl)pyrimidin-5-yl)methyl)-1H-pyrazol-4-yl)pyrazine-2-carboxamide]	3680	1.8
O=C(Nc1cnn(Cc2ccc(N3CCC3)nc2)c1)c1cncc(-c2c(OC(F)F)ccc(Cl)c2F)n1 [Example 63, N-(1-((6-(Azetidin-1-yl)pyridin-3-yl)methyl)-1H-pyrazol-4-yl)-6-(3-chloro-6-(difluoromethoxy)-2-fluorophenyl)pyrazine-2-carboxamide]	5040	17.3
CC1(O)CN(C[C@@H]2CCCN2c2ncc(Cn3cc(NC(=O)c4cncc(-c5c(C(F)F)ccc(Cl)c5F)n4)cn3)cn2)C1 [Example 152, (S)-6-(3-Chloro-6-(difluoromethyl)-2-fluorophenyl)-N-(1-((2-(2-((3-hydroxy-3-methylazetidin-1-yl)methyl)pyrrolidin-1-yl)pyrimidin-5-yl)methyl)-1H-pyrazol-4-yl)pyrazine-2-carboxamide]	6020	1
O=C(Nc1cnn(Cc2cnc(N3CCC3)c(F)c2)c1)c1cncc(-c2c(C(F)F)ccc(Cl)c2F)n1 [Example 12, N-(1-((6-(Azetidin-1-yl)-5-fluoropyridin-3-yl)methyl)-1H-pyrazol-4-yl)-6-(3-chloro-6-(difluoromethyl)-2-fluorophenyl)pyrazine-2-carboxamide]	3510	6.2
CC(c1cnc(N2CC3(CC3)C2)nc1)n1cc(NC(=O)c2cncc(-c3c(C(F)F)ccc(Cl)c3F)n2)cn1 (stereo not shown) [Example 99, N-(1-(1-(2-(5-Azaspiro[2.3]hexan-5-yl)pyrimidin-5-yl)ethyl)-1H-pyrazol-4-yl)-6-(3-chloro-6-(difluoromethyl)-2-fluorophenyl)pyrazine-2-carboxamide]	3660	29.8
CC(c1cnc(N2CC[C@H]2CN2C[C@@H](O)[C@@H](O)C2)nc1)n1cc(NC(=O)c2cncc(-c3c(C(F)F)ccc(Cl)c3F)n2)cn1 (stereo partly drawn) [Example 167, 6-(3-Chloro-6-(difluoromethyl)-2-fluorophenyl)-N-(1-(1-(2-((S)-2-(((3R,4S)-3,4-dihydroxypyrrolidin-1-yl)methyl)azetidin-1-yl)pyrimidin-5-yl)ethyl)-1H-pyrazol-4-yl)pyrazine-2-carboxamide]	5820	1
C[C@@H](c1cnc(N2C[C@@H]3C[C@@H]3[C@@H]2CO)nc1)n1cc(NC(=O)c2cncc(-c3c(C(F)F)ccc(Cl)c3F)n2)cn1 (single isomer, unassigned) [Example 74, 6-(3-Chloro-6-(difluoromethyl)-2-fluorophenyl)-N-(1-((S or R)-1-(2-((1S,2R,5R or 1R,2S,5S)-2-(hydroxymethyl)-3-azabicyclo[3.1.0]hexan-3-yl)pyrimidin-5-yl)ethyl)-1H-pyrazol-4-yl)pyrazine-2-carboxamide]	1020	4.3
Cc1nc(Cn2cc(NC(=O)c3cncc(-c4c(C(F)F)ccc(Cl)c4F)n3)cn2)cnc1N1CC(F)(F)C1 [Example 15, 6-(3-Chloro-6-(difluoromethyl)-2-fluorophenyl)-N-(1-((5-(3,3-difluoroazetidin-1-yl)-6-methylpyrazin-2-yl)methyl)-1H-pyrazol-4-yl)pyrazine-2-carboxamide]	3690	8.1
